{
  "source": "paper PMC11582173",
  "about": "“Synthesis, cytotoxicity, anti-inflammatory, anti-metastatic and anti-oxidant activities of novel chalcones incorporating 2-phenoxy-N-arylacetamide and thiophene moieties: induction of apoptosis in MCF7 and HEP2 cells” (Naunyn-Schmiedeberg's Archives of Pharmacology, 2024)",
  "key": {"[1]": {"system": "human colorectal carcinoma (HCT116) cells", "assay": "SRB cytotoxic assay, HCT116", "type": "cell-based", "details": "HCT-116, single dose 100 µg/mL, 48 h, read-out: %Inhibition at100 µg/mL HCT116", "description": "All the prepared compounds were screened at a concentration of 100 µg/mL against six different human cell lines: human laryngeal carcinoma (HEP2), human colorectal carcinoma (HCT116), human breast carcinoma (MCF7), human Lung carcinoma (A549), human liver carcinoma (HEPG2), and normal African Green monkey kidney cell line (VERO). Doxorubicin was used as a positive control for comparison purposes.\nThe human laryngeal carcinoma (HEP2), colorectal carcinoma (HCT116), breast carcinoma (MCF7), Lung carcinoma (A549), liver carcinoma (HEPG2), and normal African Green monkey kidney cell line (VERO) were purchased from American Tissue Culture Collection (Rockville, MD, USA). The cells were treated for 48 h with a single dose (100 µg/mL) of all the tested chalcones. […] In brief, the cells were seeded in a 96-well microtiter plate at a concentration of 5×10^3 cells/well in 100 µL fresh RPMI-1640 medium and left to attach to the plates for 24 h. Then, cells were incubated with 100 μL of different concentrations (50, 25, 12.5, 6.25, and 0.0 µg/mL) of 5c in triplicate at 37 °C for 48 h. After that, the cells were fixed with 10 µL cold 100% Trichloroacetic acid (TCA) for 1h at 4 °C. The wells were then washed 1 time with distilled water using (automatic Tecan washer, Germany) and stained for 30 min at room temperature with 50 µL 0.4% SRB dissolved in 1% acetic acid. The plates were air-dried and the dye was solubilized with 100 µl/well of 1M tris base (pH 10.5) for 5 min. The optical density (O.D.) of each well was measured spectrophotometrically at 570 nm with an ELISA microplate reader (Sunrise Tecan reader, Germany) with automatic shaking for 30 seconds before reading. The mean background absorbance was subtracted automatically and mean values for each drug concentration were calculated. The percentage of cell survival was calculated as follows: Survival fraction= O.D. (treated cells)/ O.D. (control cells) (Bhat et al. [2023])."}, "AKT1 gene": {"system": "AKT1 gene", "assay": "Real-time PCR, AKT1 gene expression", "type": "cell-based, human", "details": "relative to untreated control (1)", "description": "The expression level of the following six genes (Ki-67, Survivin, Interleukin-1 beta (IL-1B), Interleukin-6 (IL-6), Cyclooxygenase-2 (COX-2) and protein kinase B (AKT1)) was determined in MCF7 and HEP2 treated with the IC50 of compound 5c. The untreated cells were used as a negative control for comparison purposes. […] Ki-67 is a popular proliferation marker for human tumor cells. […] Survivin is an inhibitor of apoptotic protein (IAP) family member, which is essential for cell division. The lowering of the expression of survivin inhibited tumor development, triggered apoptosis, and made tumor cells more susceptible to radiation and chemotherapy (Albadari and Li [2023]). […] IL-1B is a pleiotropic mediator of inflammation, which is produced in response to a variety of stressors (Aarreberg et al. [2019]). […] IL-6 is a pro-inflammatory cytokine that plays a significant role in the proliferation and differentiation of human cells. It promotes the production of numerous proteins involved in acute inflammation (Uciechowski and Dempke [2020]). […]\nThe expression level of the following six genes (Ki-67, survivin, AKT1, IL-6, COX2, and IL-1B) was examined using real-time polymerase chain reaction (qPCR) (Mohamed et al. [2023a]). […] The cycle threshold (Ct) was determined automatically. […]"}},
  "data": [
    {"smiles": "COc1ccc(NC(=O)COc2ccc(C=CC(=O)c3cccs3)cc2)cc1", "note": "[Compound 5c, N-(4-Methoxyphenyl)-2-(4-(3-oxo-3-(thiophen-2-yl)prop-1-en-1-yl)phenoxy)acetamide]", "values": [
      {"measurement": "inhibition at 100 µg/mL", "setting": "[1]", "value": "41.9 ± 1.8", "unit": "%"},
      {"measurement": "AKT1 expression folding", "setting": "AKT1 gene; HEP2 cells treated with IC50 of 5c", "value": "0.381±0.011", "unit": "fold"},
      {"measurement": "AKT1 expression folding", "setting": "AKT1 gene; MCF7 cells treated with IC50 of 5c", "value": "0.402±0.068", "unit": "fold"}
    ]}
  ]
}
